Test results as given in ChEMBL document CHEMBL5113495, “Discovery of novel orexin receptor antagonists using a 1,3,5-trioxazatriquinane bearing multiple effective residues (TriMER) library” (Eur J Med Chem, 2022).
Active and inactive are the calls of the source. The rule behind the calls is not given here.

Experiments:
Orexin receptor type 2 = target: T1, Orexin receptor type 2 (Homo sapiens, UniProt O43614); assay: Antagonist activity at human OX2R expressed in CHO-K1 cells assessed as inhibition of orexin-A-induced increase in calcium mobilization preincubated for 15 mins followed orexin-A stimulation by Fura-2-AM dye based fluorescence assay; assay type: functional, cell-based
T1 sequence (O43614 whole entry): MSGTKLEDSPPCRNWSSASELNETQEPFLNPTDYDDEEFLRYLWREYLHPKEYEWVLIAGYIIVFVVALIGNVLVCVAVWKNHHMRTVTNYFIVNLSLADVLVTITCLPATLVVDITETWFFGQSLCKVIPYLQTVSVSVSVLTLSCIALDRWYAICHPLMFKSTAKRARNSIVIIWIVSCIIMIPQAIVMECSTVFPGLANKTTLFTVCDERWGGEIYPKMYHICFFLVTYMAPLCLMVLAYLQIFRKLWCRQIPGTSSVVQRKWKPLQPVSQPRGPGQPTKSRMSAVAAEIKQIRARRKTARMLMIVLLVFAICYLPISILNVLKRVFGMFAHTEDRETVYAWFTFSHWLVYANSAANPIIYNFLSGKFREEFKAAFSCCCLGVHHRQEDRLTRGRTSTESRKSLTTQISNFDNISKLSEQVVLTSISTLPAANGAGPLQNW

[1] = target: T2, Orexin/Hypocretin receptor type 1 (Homo sapiens, UniProt O43613); assay: Antagonist activity at human OX1R expressed in CHO-K1 cells assessed as inhibition of orexin-A-induced increase in calcium mobilization preincubated for 15 mins followed orexin-A stimulation by Fura-2-AM dye based fluorescence assay; assay type: functional, cell-based
T2 sequence (O43613 whole entry): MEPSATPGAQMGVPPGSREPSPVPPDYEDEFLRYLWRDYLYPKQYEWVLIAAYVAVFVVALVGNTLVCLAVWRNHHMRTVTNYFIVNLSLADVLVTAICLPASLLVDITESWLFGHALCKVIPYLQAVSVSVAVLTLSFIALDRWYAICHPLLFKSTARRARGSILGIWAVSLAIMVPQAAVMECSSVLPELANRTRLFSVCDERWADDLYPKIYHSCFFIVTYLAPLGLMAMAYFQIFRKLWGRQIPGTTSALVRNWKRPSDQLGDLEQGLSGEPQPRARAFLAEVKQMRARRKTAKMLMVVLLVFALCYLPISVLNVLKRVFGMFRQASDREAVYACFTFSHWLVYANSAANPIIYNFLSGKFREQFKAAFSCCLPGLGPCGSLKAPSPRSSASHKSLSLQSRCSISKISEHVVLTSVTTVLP

[2] = Drug concentration in C57BL/6J mouse brain at 10 mg/kg, ip measured after 0.5 hrs by LC-MS/MS analysis; assay type: ADME, organism-based; conditions: in vivo
Mus musculus [3] = assay: Sleep inducing activity in C57BL/6J mouse assessed as increase in total time of NREM sleep during dark phase at 10 mg/kg, ip measured at 12 to 18 hrs by EEG/EMG analysis; assay type: functional, organism-based; conditions: time 12-18 hrs
[4] = Metabolic stability in pooled human liver microsomes assessed as intrinsic clearance […] preincubated for 5 mins followed by NADPH addition and measured upto 60 mins by HPLC-MS/MS analysis; assay type: ADME, Microsome; conditions: time < 65 min, read-out: CLH
Mus musculus [5] = assay: Sleep inducing activity in C57BL/6J mouse assessed as decrease in total time of wakefulness during dark phase at 10 mg/kg, ip measured at 12 to 18 hrs by EEG/EMG analysis; assay type: functional, organism-based; conditions: time 12-18 hrs
[6] = Apparent permeability across apical to basolateral side in human Caco-2 cells at pH 7.4 in the presence of 1% BSA; assay type: ADME, cell-based; conditions: Caco-2, pH 7.4
[7] = Metabolic stability in pooled human liver microsomes assessed as half-life […] preincubated for 5 mins followed by NADPH addition and measured upto 60 mins by HPLC-MS/MS analysis; assay type: ADME, Microsome; conditions: time < 65 min
Mus musculus [8] = assay: Effect on locomotor activity in ip dosed ICR mouse assessed as suppression of orexin-induced enhancement of locomotor activity pretreated with compound for 30 mins followed by orexin stimulation by infrared light beam-braking system locomotor recording system; assay type: functional, organism-based; conditions: dose 3-10 mg/kg, DDE = dose-dependent effect
[9] = Passive apparent permeability in MDCK cells; assay type: ADME, cell-based, Canis lupus familiaris; conditions: dog
[10] = Apparent permeability across apical to basolateral side in human Caco-2 cells at pH 7.4; assay type: ADME, cell-based; conditions: Caco-2, pH 7.4

Row | Compound | Ki (Orexin receptor type 2) | Ki [1] | IC50 (Orexin receptor type 2) | further results
1 | C[C@@]1(c2cccc(NC(=O)c3cccnc3)c2)O[C@H]2CO[C@@H]3N2[C@H]1O[C@@]3(C)c1cccc(NC(=O)c2cccnc2)c1 | 261 nM | 691 nM |  | 
2 | CN(C)c1ccc(C(=O)Nc2cccc([C@@]3(C)O[C@H]4CO[C@@H]5N4[C@H]3O[C@]5(C)c3cccc(NC(=O)c4ccc(N(C)C)cc4)c3)c2)cc1 |  | 3.88 nM | > 10000 nM | 
3 | COc1cccc(C(=O)Nc2cccc([C@@]3(C)O[C@H]4CO[C@@H]5N4[C@H]3O[C@]5(C)c3cccc(NC(=O)c4ccccc4OC)c3)c2)c1 |  | 32.8 nM |  | 
4 | COc1cccc(C(=O)Nc2cccc([C@]3(C)O[C@@H]4N5[C@H](CO[C@H]53)O[C@@]4(C)c3cccc(NC(=O)c4ccccc4)c3)c2)c1 | 5.38 nM | 7.66 nM |  | 
5 | COc1ccc(C(=O)Nc2cccc([C@@]3(C)O[C@@H]4CO[C@H]5N4[C@@H]3O[C@]5(C)c3cccc(NC(=O)c4ccc(OC)cc4)c3)c2)cc1 |  | 110 nM |  | 
6 | COc1ccc(C(=O)Nc2cccc([C@]3(C)O[C@@H]4CO[C@H]5N4[C@@H]3O[C@@]5(C)c3cccc(NC(=O)c4ccc(OC)cc4)c3)c2)cc1 |  | 2.17 nM |  | 
7 | CN(C)c1cccc(C(=O)Nc2cccc([C@@]3(C)O[C@H]4CO[C@@H]5N4[C@H]3O[C@]5(C)c3cccc(NC(=O)c4cccc(N(C)C)c4)c3)c2)c1 |  | 7.85 nM | > 10000 nM | 
8 | COc1ccccc1C(=O)Nc1cccc([C@]2(C)O[C@@H]3N4[C@H](CO[C@H]42)O[C@@]3(C)c2cccc(NC(=O)c3ccccc3)c2)c1 | 56 nM | 18 nM |  | 
9 | COc1ccc(C(=O)Nc2cccc([C@]3(C)O[C@H]4CO[C@@H]5N4[C@H]3O[C@@]5(C)c3cccc(NC(=O)c4ccc(OC)cc4)c3)c2)cc1 |  | 3.99 nM |  | Ct [2]: 54.7 pmol/g; Activity (Mus musculus [3]): Active; microsomal CLint [4]: 184 µL/min/mg; Activity (Mus musculus [5]): Active; Papp A→B [6]: 1.4 ×10⁻⁶ cm/s; half-life [7]: 38 min
10 | C[C@@]1(c2cccc(NC(=O)c3ccccc3)c2)O[C@H]2CO[C@@H]3N2[C@H]1O[C@@]3(C)c1cccc(NC(=O)c2ccccc2)c1 | 15.1 nM | 23.4 nM |  | 
11 | C[C@@]1(c2cccc(NC(=O)c3ccccn3)c2)O[C@H]2CO[C@@H]3N2[C@H]1O[C@@]3(C)c1cccc(NC(=O)c2ccccn2)c1 | 69.6 nM | 14.9 nM |  | 
12 | C[C@]1(c2cccc(NC(=O)c3ccncc3)c2)O[C@H]2CO[C@@H]3N2[C@H]1O[C@]3(C)c1cccc(NC(=O)c2ccncc2)c1 |  | 104 nM | > 10000 nM | 
13 | COc1ccc(C(=O)Nc2cccc([C@@]3(C)O[C@H]4CO[C@@H]5N4[C@H]3O[C@]5(C)c3cccc(NC(=O)c4ccc(OC)cc4)c3)c2)cc1 |  | 1.87 nM |  | Ct [2]: 33.9 pmol/g; microsomal CLint [4]: 183 µL/min/mg; Activity (Mus musculus [8]): Dde; Papp [9]: > 10 ×10⁻⁶ cm/s; Papp A→B [10]: 11.9 ×10⁻⁶ cm/s; half-life [7]: 39 min
14 | CC(C)(C)OC(=O)Nc1cccc([C@]2(C)O[C@H]3CO[C@@H]4N3[C@H]2O[C@@]4(C)c2cccc(NC(=O)OC(C)(C)C)c2)c1 | 180 nM | 34.2 nM |  | 
15 | C[C@]1(c2cccc(NC(=O)c3ccccn3)c2)O[C@H]2CO[C@@H]3N2[C@H]1O[C@]3(C)c1cccc(NC(=O)c2ccccn2)c1 |  | 18.3 nM | > 10000 nM | 
16 | CN(C)c1ccccc1C(=O)Nc1cccc([C@]2(C)O[C@H]3CO[C@@H]4N3[C@H]2O[C@@]4(C)c2cccc(NC(=O)c3ccccc3N(C)C)c2)c1 |  |  | > 10000 nM | IC50 [1]: > 10000 nM
17 | CN(C)c1ccc(C(=O)Nc2cccc([C@]3(C)O[C@H]4CO[C@@H]5N4[C@H]3O[C@@]5(C)c3cccc(NC(=O)c4ccc(N(C)C)cc4)c3)c2)cc1 |  |  | > 10000 nM | IC50 [1]: > 10000 nM
18 | C[C@]1(c2cccc(NC(=O)c3ccccc3)c2)O[C@H]2CO[C@@H]3N2[C@H]1O[C@]3(C)c1cccc(NC(=O)c2ccccc2)c1 |  | 25.4 nM | > 10000 nM | 
19 | COc1ccc(C(=O)Nc2cccc(C3(C)OC4COC5N4C3OC5(C)c3cccc(NC(=O)c4ccc(OC)cc4)c3)c2)cc1 (mixture of isomers) |  | 11.7 nM |  | 
20 | COc1ccc(C(=O)Nc2cccc(C3(C)OC4COC5N4C3OC5(C)c3cccc(NC(=O)c4ccc(OC)cc4)c3)c2)cc1 (racemic) |  | 4.93 nM |  | 
21 | C[C@]1(c2cccc(NC(=O)c3cccnc3)c2)O[C@H]2CO[C@@H]3N2[C@H]1O[C@]3(C)c1cccc(NC(=O)c2cccnc2)c1 |  | 52 nM | > 10000 nM | 
22 | COc1cccc(C(=O)Nc2cccc([C@@]3(C)O[C@H]4CO[C@@H]5N4[C@H]3O[C@]5(C)c3cccc(NC(=O)c4cccc(OC)c4)c3)c2)c1 |  | 2.86 nM | > 10000 nM | 
23 | CN(C)c1cccc([C@]2(C)O[C@H]3CO[C@@H]4N3[C@H]2O[C@@]4(C)c2cccc(N(C)C)c2)c1 | 655 nM |  |  | IC50 [1]: > 10000 nM
24 | C[C@@]1(c2cccc(NC(=O)c3ccncc3)c2)O[C@H]2CO[C@@H]3N2[C@H]1O[C@@]3(C)c1cccc(NC(=O)c2ccncc2)c1 | 179 nM |  |  | IC50 [1]: > 10000 nM
25 | CN(C)c1ccccc1C(=O)Nc1cccc([C@@]2(C)O[C@H]3CO[C@@H]4N3[C@H]2O[C@]4(C)c2cccc(NC(=O)c3ccccc3N(C)C)c2)c1 |  | 634 nM | > 10000 nM | 
26 | C[C@@]1(c2cccc(NS(=O)(=O)c3ccccc3)c2)O[C@H]2CO[C@@H]3N2[C@H]1O[C@]3(C)c1ccc(NS(=O)(=O)c2ccccc2)cc1 | 222 nM |  |  | IC50 [1]: > 10000 nM
27 | CN(C)c1cccc(C(=O)Nc2cccc([C@]3(C)O[C@H]4CO[C@@H]5N4[C@H]3O[C@@]5(C)c3cccc(NC(=O)c4cccc(N(C)C)c4)c3)c2)c1 |  |  | > 10000 nM | IC50 [1]: > 10000 nM
